The values that follow come from publication PMC9887155, “Kinetics of cone specific G-protein signaling in avian photoreceptor cells” (Frontiers in Molecular Neuroscience, 2023).

“Also recorded” adds a separate entry of the source. Ends that are not written are not given here.

In data set [1] the test system is Gtα/Giα chimera (cone specific G protein α-subunit). The data set can be described thus: SPR interaction of LWO peptides with immobilized Gtα/Giα chimera. The data set is classed as binding, European robin (Erithacus rubecula). The note with it: for binding to Gtα/Giα (qualitative): immobilized Gtα/Giα, pH 7.4. Here is the method: The peptides representing the cytoplasmic loops of LWO (Figure 1) were purchased from Genscript (Netherlands). Sequences of the peptides were deduced from genetic sequences of the European robin genome ([Dunn et al., 2021]). Two control peptides were ordered containing scrambled sequences of LWO2 and LWO3 assigned as LWO2-sc and LWO3-sc, respectively (Table 1). To the N-terminus of each peptide, a linker (CGAGA or CGAGAG) was added to allow for specific covalent coupling via cysteine. All peptides were ordered to a purity of >90% and contained no further N-terminal modifications. The C-terminus of peptides LWO-1-3 were amidated to simulate a continuation of the peptide chain, while LWO-4 was left unmodified to represent the opsin C-terminus. Quality control by LC–MS was performed by Genscript, and concentrations of the peptides were confirmed by UV–vis measurements.
We used a Gtα/Giα chimera to allow functional expression in E. coli according to previous attempts with bovine Gtα ([Skiba et al., 1996]). Cloning of the Gtα variants was performed by PCR mutagenesis of the plasmid described in [Görtemaker et al. (2022)]. In short, the construct contained an N-terminal 6x histidine tag and SUMO (Small Ubiquitin like MOdifier) protein (for metal affinity purification and subsequent tag cleavage) followed by the Gtα chimera. Truncation of 3 and 6 amino acids was performed using the primers 1 and 2 and 1 and 3, respectively. Sequences are available in Supplementary Table S1. The truncated variants were expressed following the same protocol as the full-length protein.
Purification of the Gtα/Giα chimera was performed as exactly described previously ([Görtemaker et al., 2022]). We used the same procedure for purification of the truncated Gtα variants, but we excluded the final size exclusion chromatography. Protein samples were analyzed by standard analytical techniques such as sodium dodecyl-sulfate polyacrylamide gel electrophoresis (SDS-PAGE) and protein quantification according to established procedures in the laboratory ([Elbers et al., 2018]).
Surface plasmon resonance (SPR) measurements were performed on a Biacore 3,000 (GE Healthcare now Cytiva). We followed the general operation principle that had been described before ([Koch, 2000]; [Komolov et al., 2009]). In the present work, we immobilized the non-myristoylated Gtα/Giα chimera or its truncated variants using CM5 sensor chips (GE Healthcare) for all applications exactly as previously described ([Görtemaker et al., 2022]). Immobilization densities of Gtα/Giα were 2.6–3.4 ng/mm^2. The truncated variants Gt-3AA and Gt-6AA bound to the senor chip surface at densities of 3.1–4.2 ng/mm^2. First, we studied the interaction processes by injection of peptides representing the cytoplasmic regions in LWO (Table 1). Two peptides made from the amino acids present in LWO2 and LWO3, but in scrambled order (Table 1), served as controls. We injected different concentrations (10, 50, 100, and 200 nM or alternatively: 10, 25, 45, 55, 75, and 100 nM) at a flow rate of either 25 μl/min or 50 μl/min in SPR running buffer (10 mM HEPES/NaOH, pH 7.4, 150 mM NaCl, 10 mM MgCl2, 0.005% Tween-20, 3.4 mM EDTA). In addition, we coated control surfaces with ubiquitin-like-protease 1 as previously described ([Görtemaker et al., 2022]). For kinetic investigation of LWO2 binding to Gtα/Giα, we injected different peptide concentrations in random order. Regeneration of the surface was performed with a basic-detergent cocktail adopted from [Andersson et al. (1999)] containing final concentrations of 12.5 mM of ethanolamine, Na2PO4, piperazine, and glycine set to a pH of 11.75, as well as containing 0.2% sodium dodecyl sulfate. Despite the relatively harsh conditions, regeneration was judged to be slightly incomplete. […] With the conditions used, reproducible data was still obtained. Sensorgrams were evaluated by nonlinear curve fitting applying the global fitting approach (BIAevaluation software 4.1, GE Healthcare). […]

In the next data set the test system is Gtα/Giα chimera. The data set can be described thus: FRET interaction of dansylated peptides with Gtα/Giα in solution. The settings on record: excitation 280 nm; for decrease of fluorescence emission in the presence of Gtα/Giα: FRET, dansylated peptide and Gtα/Giα each 16.7 μM, GDP 10 μM, incubated on ice in the dark 30 min, pH 7.4; for fluorescence emission maximum: dansylated peptide 16.7 μM, 80 mM Hepes pH 7.4, 40 mM KCl, 150 mM NaCl, 10 mM MgCl2. The data set is classed as binding, European robin (Erithacus rubecula). Here is the method: Interaction of the Gtα/Giα chimera with peptide LWO2 and the control peptide LWO2-sc was tested by Förster resonance energy transfer (FRET) measurements. We designed an experiment using fluorescence excitation at 280 nm of endogenous Trp residues in Gtα/Giα and peptide and emission of Trp fluorescence at 334 nm that excited the fluorescence dye 5-Dimethylamino-1-naphthalinsulfonyl chloride (dansyl chloride). The emission spectrum of dansyl chloride was recorded between 400 and 550 nm. For this purpose, we coupled dansyl chloride to free amino groups in LWO2 and LWO2-sc. Peptides were solved in H20 bidest (1 mg/ml) and 66 μl of a peptide solution were mixed with 50 μl borat buffer (0.1 M, pH 9.5). Twenty-five μL dansyl chloride (1 mg/ml in acetone) were added and the solutions were incubated at room temperature for 5 h in darkness. Afterwards, we separated non-reacted dansyl chloride, non-reacted peptides and covalently labeled LWO2 or LWO2-sc by reversed phase liquid chromatography (HPLC) using a LiChrospher® 100 RP-18 (5 μm) column (Merck, Germany) in a Hitachi Primaide HPLC system. The column was equilibrated in 0.1% trifluoro-acetic acid (v/v) in H2O bidest. Separation was achieved by applying a gradient from 0.1% trifluoro-acetic acid (v/v) in H2O bidest to 100% acetonitrile with 0.1% trifluoro-acetic acid (v/v) in 55 min. Peaks were detected at 280 nm and the area was used to calculate the coupling yield that was at 84–97% for both peptides. FRET measurements employing the FRET pair intrinsic tryptophan and attached dansyl were performed with a fluorescence spectrometer from photon Technology International. The basic operation principle was essentially as described before ([Behnen et al., 2009]; [Scholten and Koch, 2011]) using the following modifications. Shortly before recording the spectrum, the dansylated LWO2 (or LWO2-sc) containing fraction of the HPLC elution was diluted in fluorescence buffer (80 mM Hepes pH 7.4, 40 mM KCl, 150 mM NaCl, 10 mM MgCl2) at a final concentration of 16.7 μM. After adding the G protein, the mixtures were incubated on ice in the dark for 30 min. During the measurements with the Gtα/Giα, it was present in GDP-bound conformation ([GDP] = 10 μM). The excitation wavelength was set to 280 nm and the emission spectrum was recorded from 400 to 550 nm. Recording and analysis of the data was performed using Photon Technology International software package FELIX32.

As to CGAGA-FRVKDGWINPGKFEVWCKF [LWO2-sc], in data set [1] (peptide 100 nM), the “binding to Gtα/Giα (qualitative)” value is “slight decrease in resonance units indicating no binding signal”. In the data set with Gtα/Giα chimera (label-free peptide alone or with Gtα/Giα), the “fluorescence emission of label-free peptide (control)” value is on record as “No fluorescence emission was also observed”.
In the case of “CGAGA-GSKSQRARAEQVETAQAKAEISVEK [LWO3-sc]”, the “binding to Gtα/Giα (qualitative)” value in data set [1] (peptide 100 nM) is reported as “did not indicate a binding process”.
As to “CGAGA-TAKFKKLRHPLNWI [LWO1, peptide representing a cytoplasmic loop of European robin long wavelength opsin]”, in data set [1] (peptide 100 nM), the “binding to Gtα/Giα (qualitative)” value is recorded as “did not indicate a binding process”.
For the substance “CGAGAG-AIRAVAAQQKESESTQKAEKEVSR [LWO3, peptide representing the third cytoplasmic loop of European robin LWO]”, in data set [1] (peptide 100 nM), the “binding to Gtα/Giα (qualitative)” value was “slight decrease in RU and a kind of recovery phase; also recorded: did not detect any interaction”. In addition, the “positive response during subsequent buffer flow” value in data set [1] (peptide 100 nM, buffer flow after injection, decreased over time) is “ca. 10 RU”. In addition, the “binding to Gtα/Giα (qualitative), 200 nM” value in data set [1] (peptide 200 nM, Supplementary Figure S1) was “no specific binding process occurred”.
“CGAGAG-NRQFRNCILQLFGKKVDDGSEVSTSRTEVSSVSNSSGS [LWO4, peptide representing the opsin C-terminus of European robin LWO]”: the “binding to Gtα/Giα (qualitative)” value in data set [1] (peptide 100 nM) is recorded as “did not indicate a binding process”.
For the substance “dansyl-LWO2-sc: LWO2-sc with dansyl chloride coupled to free amino groups (CGAGAFRVKDGWINPGKFEVWCKF; cysteine pairing not given here; also: dansyl coupled to free amino groups)”, in the data set on Gtα/Giα chimera, the “decrease of fluorescence emission in the presence of Gtα/Giα” value is 9,000 relative fluorescence counts and the fluorescence emission maximum is on record as 516 nm.
Take “dansyl-LWO2: LWO2 with dansyl chloride coupled to free amino groups (CGAGAWERWFVVCKPFGNIKFDGK-NH2; cysteine pairing not given here; also: dansyl coupled to free amino groups)”: in the data set with Gtα/Giα chimera, the “decrease of fluorescence emission in the presence of Gtα/Giα” value is given as 14,000 relative fluorescence counts and the fluorescence emission maximum was 510 nm.
